Results: US8999940B2 (Ipsen Pharma S.A.S., priority 2008, dated 2015)
Where a SMILES comes first, the peptide text is derived from it. Where no end group is shown, it is not given here. [ ]: non-standard residue; d: D form. The star is where a group is joined. Phe(4-CN) = N#Cc1ccc(C[C@H](N)C(=O)O)cc1; Desaminotyrosyl = O=C(CCc1ccc(O)cc1)*; Pip = O=C(O)[C@@H]1CCCCN1; Ac6c = NC1(C(=O)O)CCCCC1; Nle = CCCC[C@H](N)C(=O)O; Ac5c = NC1(C(=O)O)CCCC1; Aib = CC(C)(N)C(=O)O

How the values were obtained:
[1] = target: T1, human recombinant GIP receptor (Homo sapiens, UniProt P48546); assay: In vitro hGIP receptor binding assay
T1 construct: expressed in transfected cells; host or cells: CHO-K1 clonal cells (membrane preparation)
T1 sequence (P48546 22-466): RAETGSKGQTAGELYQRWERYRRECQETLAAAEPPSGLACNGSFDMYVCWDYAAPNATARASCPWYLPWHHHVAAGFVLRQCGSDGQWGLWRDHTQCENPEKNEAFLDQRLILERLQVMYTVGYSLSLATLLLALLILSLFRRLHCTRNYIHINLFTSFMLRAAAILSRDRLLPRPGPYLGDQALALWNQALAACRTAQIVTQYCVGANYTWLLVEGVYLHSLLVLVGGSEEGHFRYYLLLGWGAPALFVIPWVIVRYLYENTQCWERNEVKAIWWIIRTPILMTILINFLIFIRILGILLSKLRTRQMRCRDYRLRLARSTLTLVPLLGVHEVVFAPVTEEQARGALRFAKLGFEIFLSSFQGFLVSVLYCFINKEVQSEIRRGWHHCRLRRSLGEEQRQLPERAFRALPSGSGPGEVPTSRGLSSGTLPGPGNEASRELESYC
Procedure: A. In Vitro hGIP Receptor Binding Assay […] The incubations were terminated by rapid filtration through GF/C filters (pre-soaked in 0.5% polyethylenimine) using a Brandel filtration manifold. Each tube and filter were then washed three times with 5-ml aliquots of ice-cold buffer.

[2] = Human plasma half-life assay; type: in vitro ADME; settings: 37° C., LC-MS, read-out: Human Plasma T½ (converted)
[3] = Rat plasma half-life assay; type: in vitro ADME; settings: 37° C., LC-MS, read-out: Rat Plasma T½ (converted)

Row | Compound | Ki [1] [nM] | half-life at 0.1 mg/ml [2] [h] | half-life at 0.1 mg/ml [3] [h]
1 | CC[C@H](C)[C@H](NC(=O)[C@H](CCCCN)NC(=O)[C@H](CC(=O)O)NC(=O)[C@H](CCSC)NC(=O)[C@H](C)NC(=O)[C@@H](NC(=O)C1(NC(=O)[C@H](Cc2ccc(O)cc2)NC(=O)[C@H](CC(=O)O)NC(=O)[C@H](CO)NC(=O)[C@@H](NC(=O)[C@H](Cc2ccccc2)NC(=O)[C@@H](NC(=O)CNC(=O)[C@H](CCC(=O)O)NC(=O)C(C)(C)NC(=O)[C@@H](N)Cc2ccc(O)c(O)c2)[C@@H](C)O)[C@@H](C)CC)CCCC1)[C@@H](C)CC)C(=O)N[C@@H](Cc1c[nH]cn1)C(=O)N[C@@H](CCC(N)=O)C(=O)N[C@@H](CCC(N)=O)C(=O)N[C@@H](CC(=O)O)C(=O)N[C@@H](Cc1ccccc1)C(=O)N[C@H](C(=O)N[C@@H](CC(N)=O)C(=O)N[C@@H](Cc1c[nH]c2ccccc12)C(=O)N[C@@H](CC(C)C)C(=O)N[C@@H](CC(C)C)C(=O)N[C@@H](C)C(=O)N[C@@H](CCC(N)=O)C(=O)N[C@@H](CCCCN)C(=O)NCC(=O)N[C@@H](CCCCN)C(=O)N[C@@H](CCCCN)C(=O)N[C@@H](CC(N)=O)C(=O)N[C@@H](CC(=O)O)C(=O)N[C@@H](Cc1c[nH]c2ccccc12)C(=O)N[C@@H](CCCCN)C(=O)N[C@@H](Cc1c[nH]cn1)C(=O)N[C@@H](CC(N)=O)C(=O)N[C@H](C(=O)NC1(C(=O)N[C@@H](CCC(N)=O)C(=O)O)CCCC1)[C@@H](C)CC)C(C)C [Example 27, (30H-Tyr^1, Aib^2, A5c^11, 41)hGIP(1-42)-OH] | 6.69 | 7 | 5.1
2 | CC[C@H](C)[C@H](NC(=O)[C@H](CCCCN)NC(=O)[C@H](CC(=O)O)NC(=O)[C@H](CCSC)NC(=O)[C@H](C)NC(=O)[C@@H](NC(=O)C1(NC(=O)[C@H](Cc2ccc(O)cc2)NC(=O)[C@H](CC(=O)O)NC(=O)[C@H](CO)NC(=O)[C@@H](NC(=O)[C@H](Cc2ccccc2)NC(=O)[C@@H](NC(=O)CNC(=O)[C@H](CCC(=O)O)NC(=O)C(C)(C)NC(=O)[C@@H](N)Cc2c(C)cc(O)cc2C)[C@@H](C)O)[C@@H](C)CC)CCCC1)[C@@H](C)CC)C(=O)N[C@@H](Cc1c[nH]cn1)C(=O)N[C@@H](CCC(N)=O)C(=O)N[C@@H](CCC(N)=O)C(=O)N[C@@H](CC(=O)O)C(=O)N[C@@H](Cc1ccccc1)C(=O)N[C@H](C(=O)N[C@@H](CC(N)=O)C(=O)N[C@@H](Cc1c[nH]c2ccccc12)C(=O)N[C@@H](CC(C)C)C(=O)N[C@@H](CC(C)C)C(=O)N[C@@H](C)C(=O)N[C@@H](CCC(N)=O)C(=O)N[C@@H](CCCCN)C(=O)NCC(=O)N[C@@H](CCCCN)C(=O)N[C@@H](CCCCN)C(=O)N[C@@H](CC(N)=O)C(=O)N[C@@H](CC(=O)O)C(=O)N[C@@H](Cc1c[nH]c2ccccc12)C(=O)N[C@@H](CCCCN)C(=O)N[C@@H](Cc1c[nH]cn1)C(=O)N[C@@H](CC(N)=O)C(=O)N[C@H](C(=O)NC1(C(=O)N[C@@H](CCC(N)=O)C(=O)O)CCCC1)[C@@H](C)CC)C(C)C [Example 30, (2,6Me-Tyr^1, Aib^2, A5c^11, 41)hGIP(1-42)-OH] | 1.03 | 27.6 | 7.2
3 | CCCC[C@H](NC(=O)[C@H](C)NC(=O)[C@@H](NC(=O)[C@H](CO)NC(=O)[C@H](Cc1ccc(O)cc1)NC(=O)[C@H](CC(=O)O)NC(=O)[C@H](CO)NC(=O)[C@@H](NC(=O)[C@H](Cc1ccccc1)NC(=O)[C@@H](NC(=O)CNC(=O)[C@H](CCC(=O)O)NC(=O)C(C)(C)NC(=O)CCc1ccc(O)cc1)[C@@H](C)O)[C@@H](C)CC)[C@@H](C)CC)C(=O)N[C@@H](CC(=O)O)C(=O)N[C@@H](CCCCN)C(=O)N[C@H](C(=O)N[C@@H](Cc1c[nH]cn1)C(=O)N[C@@H](CCC(N)=O)C(=O)N[C@@H](CCC(N)=O)C(=O)N[C@@H](CC(=O)O)C(=O)N[C@@H](Cc1ccccc1)C(=O)N[C@H](C(=O)N[C@@H](CC(N)=O)C(=O)N[C@@H](Cc1c[nH]c2ccccc12)C(=O)N[C@@H](CC(C)C)C(=O)N[C@@H](CC(C)C)C(=O)N[C@@H](C)C(=O)N[C@@H](CCC(N)=O)C(=O)N[C@@H](CCCCN)C(N)=O)C(C)C)[C@@H](C)CC [Example 5, (4Hppa^1, Aib^2, Nle^14)hGIP(1-30)-NH2] (Desaminotyrosyl-[Aib]EGTFISDYSIA[Nle]DKIHQQDFVNWLLAQK-NH2) | 2.95 | 50.6 | 83.5
4 | CCCC[C@H](NC(=O)[C@H](C)NC(=O)[C@@H](NC(=O)C1(NC(=O)[C@H](Cc2ccc(O)cc2)NC(=O)[C@H](CC(=O)O)NC(=O)[C@H](CO)NC(=O)[C@@H](NC(=O)[C@H](Cc2ccccc2)NC(=O)[C@@H](NC(=O)CNC(=O)[C@H](CCC(=O)O)NC(=O)C(C)(C)NC(=O)[C@@H](N)Cc2cc(F)c(F)c(F)c2)[C@@H](C)O)[C@@H](C)CC)CCCC1)[C@@H](C)CC)C(=O)N[C@@H](CC(=O)O)C(=O)N[C@@H](CCCCN)C(=O)N[C@H](C(=O)N[C@@H](Cc1c[nH]cn1)C(=O)N[C@@H](CCC(N)=O)C(=O)N[C@@H](CCC(N)=O)C(=O)N[C@@H](CC(=O)O)C(=O)N[C@@H](Cc1ccccc1)C(=O)N[C@H](C(=O)N[C@@H](CC(N)=O)C(=O)N[C@@H](Cc1c[nH]c2ccccc12)C(=O)N[C@@H](CC(C)C)C(=O)N[C@@H](CC(C)C)C(=O)N[C@@H](C)C(=O)N[C@@H](CCC(N)=O)C(=O)N[C@@H](CCCCN)C(=O)NCC(=O)N[C@@H](CCCCN)C(=O)N[C@@H](CCCCN)C(=O)N[C@@H](CC(N)=O)C(=O)N[C@@H](CC(=O)O)C(=O)N[C@@H](Cc1c[nH]c2ccccc12)C(=O)N[C@@H](CCCCN)C(=O)N[C@@H](Cc1c[nH]cn1)C(=O)N[C@@H](CC(N)=O)C(=O)N[C@H](C(=O)N[C@H](C(=O)N[C@@H](CCC(N)=O)C(=O)O)[C@@H](C)O)[C@@H](C)CC)C(C)C)[C@@H](C)CC [Example 22, (3,4,5F-Phe^1, Aib^2, A5c^11, Nle^14)hGIP(1-42)-OH] | 31.1 | > 74 | 69.3
5 | CC[C@H](C)[C@H](NC(=O)[C@H](CCCCN)NC(=O)[C@H](CC(=O)O)NC(=O)[C@H](CCSC)NC(=O)[C@H](C)NC(=O)[C@@H](NC(=O)C1(NC(=O)[C@H](Cc2ccc(O)cc2)NC(=O)[C@H](CC(=O)O)NC(=O)[C@H](CO)NC(=O)[C@@H](NC(=O)[C@H](Cc2ccccc2)NC(=O)[C@@H](NC(=O)CNC(=O)[C@H](CCC(=O)O)NC(=O)C(C)(C)NC(=O)[C@@H](N)Cc2c(C)cc(O)cc2C)[C@@H](C)O)[C@@H](C)CC)CCCC1)[C@@H](C)CC)C(=O)N[C@@H](Cc1c[nH]cn1)C(=O)N[C@@H](CCC(N)=O)C(=O)N[C@@H](CCC(N)=O)C(=O)N[C@@H](CC(=O)O)C(=O)N[C@@H](Cc1ccccc1)C(=O)N[C@H](C(=O)N[C@@H](CC(N)=O)C(=O)N[C@@H](Cc1c[nH]c2ccccc12)C(=O)N[C@@H](CC(C)C)C(=O)N[C@@H](CC(C)C)C(=O)N[C@@H](C)C(=O)N[C@@H](CCC(N)=O)C(=O)N[C@@H](CCCCN)C(=O)NCC(=O)N[C@@H](CCCCN)C(=O)N[C@@H](CCCCN)C(=O)N[C@@H](CC(N)=O)C(=O)N[C@@H](CC(=O)O)C(=O)N[C@@H](Cc1c[nH]c2ccccc12)C(=O)N[C@@H](CCCCN)C(=O)N[C@@H](Cc1c[nH]cn1)C(=O)N[C@@H](CC(N)=O)C(=O)N[C@H](C(=O)N[C@H](C(=O)N[C@@H](CCC(N)=O)C(=O)N[C@@H](Cc1c[nH]cn1)C(=O)O)[C@@H](C)O)[C@@H](C)CC)C(C)C [Example 53, (2,6Me-Tyr^1, Aib^2, A5c^11, His^43)hGIP(1-43)-OH] | 35 | 20 | 23.2
6 | Desaminotyrosyl-A[Pip]GTF[Ac6c]SDYSIAMDKIHQQDFVNWLLAQKGKKNDWKHNITQ [Example 8, (4Hppa^1, hPro^3, A6c^7)hGIP(1-42)-OH] | 707 | > 53 | 12.9
7 | CC[C@H](C)[C@H](NC(=O)[C@H](CCCCN)NC(=O)[C@H](CC(=O)O)NC(=O)[C@H](CCSC)NC(=O)[C@H](C)NC(=O)[C@@H](NC(=O)C1(NC(=O)[C@H](Cc2ccc(O)cc2)NC(=O)[C@H](CC(=O)O)NC(=O)[C@H](CO)NC(=O)[C@@H](NC(=O)[C@H](Cc2ccccc2)NC(=O)[C@@H](NC(=O)CNC(=O)[C@H](CCC(=O)O)NC(=O)C(C)(C)NC(=O)[C@@H](N)Cc2ccc(F)cc2)[C@@H](C)O)[C@@H](C)CC)CCCC1)[C@@H](C)CC)C(=O)N[C@@H](Cc1c[nH]cn1)C(=O)N[C@@H](CCC(N)=O)C(=O)N[C@@H](CCC(N)=O)C(=O)N[C@@H](CC(=O)O)C(=O)N[C@@H](Cc1ccccc1)C(=O)N[C@H](C(=O)N[C@@H](CC(N)=O)C(=O)N[C@@H](Cc1c[nH]c2ccccc12)C(=O)N[C@@H](CC(C)C)C(=O)N[C@@H](CC(C)C)C(=O)N[C@@H](C)C(=O)N[C@@H](CCC(N)=O)C(=O)N[C@@H](CCCCN)C(=O)NCC(=O)N[C@@H](CCCCN)C(=O)N[C@@H](CCCCN)C(=O)N[C@@H](CC(N)=O)C(=O)N[C@@H](CC(=O)O)C(=O)N[C@@H](Cc1c[nH]c2ccccc12)C(=O)N[C@@H](CCCCN)C(=O)N[C@@H](Cc1c[nH]cn1)C(=O)N[C@@H](CC(N)=O)C(=O)N[C@H](C(=O)NC1(C(=O)N[C@@H](CCC(N)=O)C(=O)O)CCCC1)[C@@H](C)CC)C(C)C [Example 32, (4F-Phe^1, Aib^2, A5c^11, 41)hGIP(1-42)-OH] | 5.82 | 23.9 | > 61
8 | [Phe(4-CN)][Aib]EGTFISDY[Ac5c]IAMDKIHQQDFVNWLLAQKGKKNDWKHNITQH-OH [Example 79, (4CN-Phe^1, Aib^2, A5c^11, His^43)hGIP(1-43)-OH] | 5.12 | 26.3 | 21.7
